Test results reported in patent publication US20260022122A1 (Checkmate Therapeutics Inc., priority 2022, published 2026).

Experiments:
[1] = target: NamPT (Homo sapiens (Human), UniProt P43490); assay: Measurement of NamPT inhibitory ability IC50 (NamPT colorimetric assay kit, Abcam ab221819); format: biochemical; conditions: NamPT recombinant protein, WST-1 absorbance at 450 nm; class key in μM
Experimental: To test the effect of the compound prepared in each Example on the substrate decomposition rate (Vmax/min) mediated by NamPT enzyme, IC50 was calculated. In this experiment, the NamPT colorimetric assay kit (ab221819) produced by Abcam was used, and Graph prism software was used for IC50 calculation. PRPP, ATP, NMNAT1, NamPT recombinant proteins, and various concentrations of the compound of each Example (half-log step dilution from 100 μM) were added to nicotinamide to synthesize nicotinamide adenine dinucleotide (NAD) from the nicotinamide, and a total of 60 μL of the reaction solution was reacted at room temperature for 1 hour. WST-1 formazan converted by NAD generated by adding WST-1 was measured. The result of the reaction was obtained by the following formula by measuring absorbance using EnVision2105 (PerkinElmer) at 450 nm for 60 minutes at 2-minute intervals.
In Mathematical Formula 1, T1 and T2 are arbitrary times, and A1 and A2 represent the absorbance measured at T1 and T2 at 450 nm, respectively.
The results of measuring the NamPT inhibition activity of the compound of each Example obtained through the above experiment are shown in Table 1 in the unit of IC50 (nM), and the result values are expressed as follows.

[2] = tested on: NAPRT-negative gastric cancer cell line HGC27; assay: NAPRT-negative cancer cell xenograft model (% tumor growth inhibition); format: in vivo; conditions: 50 mg/kg, orally once a day from day 1 to day 21, HGC27 xenograft in BALB/c nude mice
Source text: Based on the effect of inhibiting proliferation limited to NAPRT-negative cancer cell lines according to the experiment of the proliferation inhibitory effect (EC50) on NAPRT-negative cancer cell lines, the pharmacological effect in a xenograft model using NAPRT-negative cancer cell lines was verified. Five-week-old female BALB/c nude mice were purchased and used in the experiment after acclimation for one week. The cancer cells used in the experiment were a NAPRT-negative gastric cancer cell line HGC27, and cultured in […] medium (Gibco) to which 5% Fetal Bovine Serum (Gibco, US) and 1% penicillin/streptomycin (Gibco) were added. HGC27 was suspended in PBS (Welgene) and transplanted to have 5×10^6 cells into each mouse. After adding Matrigel in the same value, tumors were induced by subcutaneous injection into the right flank using a 1 mL syringe. After 3 weeks of breeding, when the average tumor size was 100 to 150 mm^3, mice were randomly divided into groups of 7 and administered each compound. The compound was prepared in an excipient (0.5% DMSO/2% Tween 80/20% PEG 400/20% b-HPCD in 77.5% DW) as an agent for oral administration, and administered orally once a day from day 1 to day 21 to the mouse model in which a tumor was generated. From day 1 to day 21, the body weight was measured once daily, and the tumor size was measured three times a week. The tumor size was measured using a caliper and calculated using the following formula.
In Mathematical Formula 2, W is a length, and d is a width.
On day 21, all animals were euthanized, blood samples were collected, and tumors were removed. To evaluate blood toxicity, blood was collected from an EDTA-containing blood collection tube, and subjected to a general blood test (complete blood count, CBC) and a blood biochemical test. Isolated tumors were weighed after photographing and a portion was used to measure NAD to verify the on-target efficacy of the compound. To measure NAD, a NAD/NADH Quantitation Colorimetric Kit (K337) produced by BioVision was used.
The pharmacological effect of each compound in the NAPRT-negative cancer cell xenograft models, obtained in this experiment, is shown in Table 3 in the unit of % TGI (tumor growth inhibition).

[3] = tested on: NAPRT negative lung cancer cell lines (H322, H661, H1155); assay: Proliferation inhibition on NAPRT negative lung cancer cell lines (CellTiter-Glo); format: cell-based; conditions: 72 hours
Experimental: (§1) A compound showing a low IC50 value was selected from the compounds of the above Examples and treated an NAPRT positive or negative lung cancer cell line with various concentrations, and then the change in cell viability for each cell line was measured. The results are presented in a graph (a few materials known as NamPT inhibitors were used as controls). A total of 9 cancer cells lines (three NAPRT negative cell lines: H322, H661, and H1155; and six NAPRT positive cell lines: H1993, H2122, H2030, H1975, H1299, and HBEC30) were used. 5% fetal bovine serum (Gibco, US) and 1% penicillin/streptomycin (Gibco) were added to a medium, and the cells were cultured in a 37° C. constant temperature incubator containing 5% CO2. For compound treatment, each type of cells were seeded at 3×10^3 cells/well in a 96-well plate (Corning) and then incubated in a 37° C. constant temperature incubator containing 5% CO2 for 18 hours. […] Afterwards, the cells were cultured in an incubator containing 5% CO2 at 37° C. for 72 hours. To confirm the effect of inhibiting the proliferation of cancer cells, a CellTiter-Glo Luminescent Cell Viability Assay (Promega) was used. After treating the cells with 10 μL of CellTiter-Glo luciferase reagent and leaving them for 15 minutes at room temperature, the luminescence of each well was measured using EnVision2105 (PerkinElmer). The change in cell viability by the compound diluted at the concentration of each step was converted into a relative % value for the amount of luminescence shown by DMSO treatment. EC50 is expressed as the concentration of each compound that induces 50% of the maximum luminescence level.
(§2) The results of measuring the proliferation inhibition ability of the compound of each Example on nine types of lung cancer cell lines, obtained through the above experiment, are shown in Table 2 in the unit of EC50 (μM). The resulting values are expressed as follows.

[4] = tested on: NAPRT positive cell lines (H1993, H2122, H2030, H1975, H1299, HBEC30); assay: Proliferation inhibition on NAPRT positive lung cancer cell lines (CellTiter-Glo); format: cell-based; conditions: 72 hours
Experimental: as §1, §2

NamPT, sequence (P43490 whole entry): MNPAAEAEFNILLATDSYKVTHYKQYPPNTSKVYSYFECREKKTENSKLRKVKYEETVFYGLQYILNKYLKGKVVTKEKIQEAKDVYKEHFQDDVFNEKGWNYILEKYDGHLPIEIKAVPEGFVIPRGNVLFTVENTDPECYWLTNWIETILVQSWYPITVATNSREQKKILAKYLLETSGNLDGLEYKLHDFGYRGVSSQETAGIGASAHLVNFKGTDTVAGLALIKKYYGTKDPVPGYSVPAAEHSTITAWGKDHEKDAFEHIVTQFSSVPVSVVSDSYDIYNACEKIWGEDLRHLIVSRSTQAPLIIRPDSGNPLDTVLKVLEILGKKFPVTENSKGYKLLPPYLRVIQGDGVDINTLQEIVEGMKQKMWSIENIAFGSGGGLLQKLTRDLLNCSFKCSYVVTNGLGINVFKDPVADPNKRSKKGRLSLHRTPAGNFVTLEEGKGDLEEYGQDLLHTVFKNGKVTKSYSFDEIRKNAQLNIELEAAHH

Row | SMILES | IC50 [1] | % TGI (Tumor Growth inhibition) [2] | EC50 [3] | EC50 [4]
1 | Cc1cc2nc(-c3ccc(CNC(=O)c4cnc5nccn5c4)cc3)oc2cc1F [Example 11, N-[[4-(6-fluoro-5-methyl-1,3-benzoxazol-2-yl)phenyl]methyl]imidazo[1,2-a]pyrimidin-6-carboxamide] | < 0.05 µM | 82% | – | –
2 | Cc1cc2nc(-c3ccc(CNC(=O)c4cnc5nccn5c4)cc3)oc2cc1Cl [Example 10, N-[[4-(6-chloro-5-methyl-1,3-benzoxazol-2-yl)phenyl]methyl]imidazo[1,2-a]pyrimidin-6-carboxamide] | < 0.05 µM | 61% | < 0.05 µM | > 101 µM
3 | O=C(NCc1ccc(-c2nc3ccc(Cl)cc3o2)cc1)c1cnc2nccn2c1 [Example 4, N-[[4-(6-chloro-1,3-benzoxazol-2-yl)phenyl]methyl]imidazo[1,2-a]pyrimidin-6-carboxamide] | < 0.05 µM | 80% | < 0.05 µM | > 101 µM
4 | O=C(NCc1ccc(-c2nc3cc(C(F)(F)F)ccc3o2)cc1)c1cnc2nccn2c1 [Example 13, N-[[4-[5-(trifluoromethyl)-1,3-benzoxazol-2-yl]phenyl]methyl]imidazo[1,2-a]pyrimidin-6-carboxamide] | < 0.05 µM | 63% | < 0.05 µM | > 101 µM
